Source: patent US8404713B2, “Quinolinone derivatives as PARP inhibitors” (Janssen Pharmaceutica NV, priority 2007, dated 2013)

Columns and labels:
TANK-2 enzyme = biological target: T1, TANK-2 enzyme (Homo sapiens, UniProt Q9H2K2); assay: In vitro scintillation proximity assay (SPA) for TANK-2 inhibitory activity; assay type: biochemical; conditions: auto-poly(ADP-ribosyl)ation, Ni flash plates; 96-well results if available, otherwise 384-well; tested between 10^-5 M and 3x10^-8 M; read-out: in vitro SPA assay TANK-2 pIC50 (converted)
T1 construct: made in house
T1 sequence (Q9H2K2 1-1166): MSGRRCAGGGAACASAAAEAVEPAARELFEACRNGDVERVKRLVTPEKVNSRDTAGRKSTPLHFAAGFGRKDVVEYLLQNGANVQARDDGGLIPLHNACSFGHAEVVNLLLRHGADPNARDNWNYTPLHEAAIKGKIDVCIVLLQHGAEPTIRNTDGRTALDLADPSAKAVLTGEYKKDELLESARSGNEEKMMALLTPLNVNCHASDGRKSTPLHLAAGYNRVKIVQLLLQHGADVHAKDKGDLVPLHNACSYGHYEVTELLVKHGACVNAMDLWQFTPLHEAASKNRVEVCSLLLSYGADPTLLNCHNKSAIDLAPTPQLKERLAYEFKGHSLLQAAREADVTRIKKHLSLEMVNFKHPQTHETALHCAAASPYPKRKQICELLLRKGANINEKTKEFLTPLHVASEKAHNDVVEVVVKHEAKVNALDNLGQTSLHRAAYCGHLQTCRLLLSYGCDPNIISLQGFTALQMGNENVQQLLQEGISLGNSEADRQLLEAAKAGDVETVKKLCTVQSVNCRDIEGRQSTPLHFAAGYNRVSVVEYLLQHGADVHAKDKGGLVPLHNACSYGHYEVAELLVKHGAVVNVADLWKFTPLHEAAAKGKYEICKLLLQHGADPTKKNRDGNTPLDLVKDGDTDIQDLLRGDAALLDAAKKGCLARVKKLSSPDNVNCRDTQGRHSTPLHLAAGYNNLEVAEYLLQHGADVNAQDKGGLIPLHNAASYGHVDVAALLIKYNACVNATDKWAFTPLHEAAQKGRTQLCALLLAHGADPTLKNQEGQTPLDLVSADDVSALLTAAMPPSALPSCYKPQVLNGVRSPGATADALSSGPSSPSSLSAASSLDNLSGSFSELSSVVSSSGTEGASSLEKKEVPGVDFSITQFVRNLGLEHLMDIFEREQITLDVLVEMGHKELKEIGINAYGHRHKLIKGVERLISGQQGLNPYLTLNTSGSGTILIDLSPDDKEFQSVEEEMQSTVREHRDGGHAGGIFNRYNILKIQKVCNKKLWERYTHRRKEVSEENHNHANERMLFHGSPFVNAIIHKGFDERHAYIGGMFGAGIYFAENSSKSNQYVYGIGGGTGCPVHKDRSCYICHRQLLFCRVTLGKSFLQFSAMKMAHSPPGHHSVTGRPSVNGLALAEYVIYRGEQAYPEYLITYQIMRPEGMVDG
Method: C.2. In Vitro Scintillation Proximity Assay (SPA) for TANK-2 Inhibitory Activity
Compounds of the present invention were tested in an in vitro assay based on SPA technology with Ni Flash plates (96 or 384 well).
In principle, the assay relies upon SPA technology for the detection of auto-poly(ADP-ribosyl)ation of TANK-2 protein using [^3H]-nicotinamide adenine dinucleotide ([^3H]-NAD^+) as ADP-ribosyl donor.
A stock solution of 100 nM [^3H]-NAD^+/NAD (0.1 mCi/ml, supplier: Perkin Elmer) and 0.25 mM NAD (Sigma) was made in assay buffer (60 mM Tris/HCl, pH 7.4; 0.9 mM DTT; 6 mM MgCl2). The TANK-2 enzyme was produced as described in EP1238063. 60 μl of assay buffer, together with 1 μl of compound in DMSO, 20 μl of [^3H]-NAD^+/NAD and 20 μl of TANK-2 enzyme (final concentration 8 μg/ml) was added per well into a 96-well Ni-coated flash plate (Perkin Elmer). After incubation of the mixture for 120 min. at room temperature, the reaction was terminated by adding 60 μl of stopsolution (42.6 mg NAD in 6 ml H2O). The plates were covered with a plate sealer and placed in a TopCountNX™ (Packard) for scintillation counting. Values were expressed as counts per minute (cpm). For each experiment, controls (containing TANK-2 enzyme and DMSO without compound), a blank incubation (containing DMSO but no TANK-2 enzyme or compound) and samples (containing TANK-2 enzyme and compound dissolved in DMSO) were run in parallel. All compounds tested were dissolved and eventually further diluted in DMSO. […] In each test, the blank value was subtracted from both the control and the sample values. The control sample represented maximal TANK-2 enzyme activity. For each sample, the amount of cpm was expressed as a percentage of the mean cpm value of the controls. When appropriate, IC50-values (concentration of the drug, needed to reduce the TANK-2 enzyme activity to 50% of the control) were computed using linear interpolation between the experimental points just above and below the 50% level. Herein the effects of test compounds are expressed as pIC50 (the negative log value of the IC50-value). As reference compounds, 3-aminobenzamide and 4-amino-1,8-naphtalimide were included to validate the SPA assay. Herein the assay was described using 96-well plates. In the assay using 384-well plates the same final concentrations were used and volumes were adapted.

Human PARP-1 enzyme = biological target: T2, Human PARP-1 enzyme (Homo sapiens, UniProt P09874); assay: In vitro scintillation proximity assay (SPA) for PARP-1 inhibitory activity; assay type: biochemical; conditions: nicked DNA activated PARP-1, [3H]-NAD+, biotinylated histones; tested between 10^-5 M and 3x10^-9 M; read-out: in vitro SPA assay PARP-1 pIC50 (converted)
T2 construct: purchased Trevigen
Method: C.1. In Vitro Scintillation Proximity Assay (SPA) for PARP-1 Inhibitory Activity
Compounds of the present invention were tested in an in vitro assay based on SPA technology (proprietary to GE healthcare).
In principle, the assay relies upon the well established SPA technology for the detection of poly(ADP-ribosyl)ation of biotinylated target proteins, i.e histones. This ribosylation is induced using nicked DNA activated PARP-1 enzyme and [^3H]-nicotinamide adenine dinucleotide ([^3H]-NAD^+) as ADP-ribosyl donor.
Histones (type II-A, supplier: Sigma) were biotinylated using the biotinylation kit of Amersham and stored aliquoted at −20° C. A stock solution of 100 mg/ml SPA poly(vinyl toluene) (PVT) beads (supplier: Amersham) was made in PBS. A stock solution of 61.6 nM [^3H]-NAD^+ was made by adding [^3H]-NAD^+ (0.1 mCi/ml, supplier: Perkin Elmer) to incubation buffer (50 mM Tris/HCl, pH 8; 0.2 mM DTT; 4 mM MgCl2). A solution of 4 mM NAD^+ (supplier: Sigma) was made. Human PARP-1 enzyme was obtained from Trevigen. Biotinylated histones and PVT-SPA beads were mixed and pre-incubated for 30 min. at room temperature. PARP-1 enzyme (concentration was lot dependent) was mixed with the nicked DNA and the mixture was pre-incubated for 30 min. at 4° C. Equal parts of this histones/PVT-SPA beads solution and PARP-1 enzyme/DNA solution were mixed and 75 μl of this mixture together with 1 μl of compound in DMSO and 25 μl of [^3H]-NAD^+ was added per well into a 96-well microtiterplate. The final concentrations in the incubation mixture were 2 μg/ml for the biotinylated histones, 2 mg/ml for the PVT-SPA beads, 0.25 μg/ml for the nicked DNA and between 0.1-0.2 μg/ml for the PARP-1 enzyme. After incubation of the mixture for 20 min. at room temperature, the reaction was terminated by adding 100 μl of 4 mM NAD^+ in water (final concentration 2 mM) and plates were mixed. The beads were sedimented by centrifugation (10 min, 800 rpm). and plates transferred to a TopCountNXT™ (Packard) for scintillation counting, values were expressed as counts per minute (cpm). For each experiment, controls (containing PARP-1 enzyme and DMSO without compound), a blank incubation (containing DMSO but no PARP-1 enzyme, no DNA or compound) and samples (containing PARP-1 enzyme, DNA and compound dissolved in DMSO) were run in parallel. All compounds tested were dissolved and eventually further diluted in DMSO. A dose-response curve was made wherein the compounds were tested at concentrations between 10^−5M and 3×10^−9M. In each test, the blank value was subtracted from both the control and the sample values. The control sample represented maximal PARP-1 enzyme activity. For each sample, the amount of cpm was expressed as a percentage of the mean cpm value of the controls. When appropriate, IC50-values (concentration of the drug, needed to reduce the PARP-1 enzyme activity to 50% of the control) were computed using linear interpolation between the experimental points just above and below the 50% level. Herein the effects of test compounds are expressed as pIC50 (the negative log value of the IC50-value). As a reference compound, 4-amino-1,8-naphthalimide was included to validate the SPA assay.

T2 sequence (P09874 whole entry): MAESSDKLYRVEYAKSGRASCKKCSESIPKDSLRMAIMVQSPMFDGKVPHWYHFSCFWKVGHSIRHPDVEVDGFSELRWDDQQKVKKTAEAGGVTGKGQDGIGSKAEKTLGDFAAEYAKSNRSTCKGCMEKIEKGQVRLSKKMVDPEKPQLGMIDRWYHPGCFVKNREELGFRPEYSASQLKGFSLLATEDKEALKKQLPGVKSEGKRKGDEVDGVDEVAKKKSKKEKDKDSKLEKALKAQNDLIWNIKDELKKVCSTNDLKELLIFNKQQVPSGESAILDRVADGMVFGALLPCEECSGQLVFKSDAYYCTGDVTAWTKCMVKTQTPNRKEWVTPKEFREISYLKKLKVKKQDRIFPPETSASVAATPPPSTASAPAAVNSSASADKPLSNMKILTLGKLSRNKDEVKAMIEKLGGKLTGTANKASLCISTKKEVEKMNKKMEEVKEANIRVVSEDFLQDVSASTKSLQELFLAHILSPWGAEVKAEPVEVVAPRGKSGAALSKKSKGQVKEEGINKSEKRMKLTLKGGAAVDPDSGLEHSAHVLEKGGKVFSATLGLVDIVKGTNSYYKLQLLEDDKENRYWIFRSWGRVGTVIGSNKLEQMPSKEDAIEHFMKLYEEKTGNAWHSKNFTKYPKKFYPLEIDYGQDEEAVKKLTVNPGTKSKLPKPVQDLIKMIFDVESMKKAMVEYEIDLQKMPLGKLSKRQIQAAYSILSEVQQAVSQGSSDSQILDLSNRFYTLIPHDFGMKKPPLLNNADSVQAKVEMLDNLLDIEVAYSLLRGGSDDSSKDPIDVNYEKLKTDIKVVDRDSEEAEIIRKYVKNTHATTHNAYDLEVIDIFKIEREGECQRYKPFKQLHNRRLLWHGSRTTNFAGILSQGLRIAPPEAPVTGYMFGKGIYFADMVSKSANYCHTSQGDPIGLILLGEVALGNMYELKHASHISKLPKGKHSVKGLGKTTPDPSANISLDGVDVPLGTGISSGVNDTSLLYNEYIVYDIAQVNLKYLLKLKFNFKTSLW

Row | SMILES | IC50 (TANK-2 enzyme) [nM] | IC50 (Human PARP-1 enzyme) [nM]
1 | CCc1cc2ccc(C(CO)N3CCOCC3)cc2[nH]c1=O (stereo not drawn) [Compound 5] | 1440 | 82.8
2 | CCc1cc2ccc(CN3CCN(c4ncc(C(=O)O)cn4)CC3)cc2[nH]c1=O [Compound 12] | 65.5 | 77.1
3 | CCc1cc2ccc(CNCCN3CCOCC3)cc2[nH]c1=O [Compound 19] | 5870 | 4.6
4 | CCc1cc2ccc(CN3CC=C(c4ccccc4)CC3)cc2[nH]c1=O [Compound 21] | 986 | 1.03
5 | CCc1cc2ccc(CNCCN3CCN(c4ncccn4)CC3)cc2[nH]c1=O [Compound 24] | 1000 | 80.4
6 | CCc1cc2ccc(CNCC3CCN(c4ncccn4)CC3)cc2[nH]c1=O [Compound 25] | 1100 | 136
7 | Cc1cc2ccc(CN3CCN(c4ncccn4)CC3)cc2[nH]c1=O [Compound 26] | 1980 | 237
8 | CCc1cc2ccc(CN3CCN(CCOC)CC3)cc2[nH]c1=O [Compound 27] | 3960 | 65
9 | CCc1cc2ccc(CN3C[C@@H]4C[C@H]3CN4c3ccc(Cl)cc3)cc2[nH]c1=O [Compound 28] | 650 | 34.8
10 | CCc1cc2ccc(CN3CCc4ccccc4C3)cc2[nH]c1=O [Compound 29] | 424 | 20
11 | CCc1cc2ccc(CN3CCC(Cc4ccccc4)CC3)cc2[nH]c1=O [Compound 31] | 3120 | 403
12 | CCc1cc2ccc(C(O)CN3CCN(c4ncccn4)CC3)cc2[nH]c1=O (stereo not drawn) [Compound 32] | 92.3 | 89.5
13 | CCc1cc2ccc(C(CO)N3CCN(c4ncccn4)CC3)cc2[nH]c1=O (stereo not drawn) [Compound 33] | 780 | 84.7
14 | CCc1cc2ccc(C(O)CN3CCC(Cc4ccccc4)CC3)cc2[nH]c1=O (stereo not drawn) [Compound 34] | 391 | 94.6
15 | CCc1cc2ccc(CN3CCN(c4n[nH]c5ccccc45)CC3)cc2[nH]c1=O [Compound 37] | 232 | 5.68
16 | CCc1cc2ccc(CN(C)CCOC)cc2[nH]c1=O [Compound 38] | 867 | 11.9
17 | CCc1cc2ccc(CN3CCN(c4ccc(OC)c(OC)c4)CC3)cc2[nH]c1=O [Compound 41] | 500 | 34.2
18 | CCc1cc2ccc(CN3CCN(c4ccc(OC)cc4)CC3)cc2[nH]c1=O [Compound 42] | 1300 | 0.893
19 | CCc1cc2ccc(CN3CCN(CCc4ccccc4)CC3)cc2[nH]c1=O [Compound 44] | 2190 | 6.9
20 | CCc1cc2ccc(CNCCCc3ccccc3)cc2[nH]c1=O [Compound 46] | 5380 | 9.48
21 | CCc1cc2ccc(CNCc3ccncc3)cc2[nH]c1=O [Compound 47] | 144 | 124
22 | CCc1cc2c(OC)cc(CN3CCN(c4ccc(C#N)cn4)CC3)cc2[nH]c1=O [Compound 69] | 57.5 | –

The next lines start with the values.

Row | IC50 (TANK-2 enzyme) [nM] | IC50 (Human PARP-1 enzyme) [nM] | SMILES
23 | 63.2 | 170 | CCc1cc2ccc(CCCN3CCN(c4ccc(C#N)cn4)CC3)cc2[nH]c1=O [Compound 8]
24 | 76.6 | 0.865 | CCc1cc2ccc(CN3CCN(c4ccc(C#N)cn4)CC3)cc2[nH]c1=O [Compound 17]
25 | 1930 | 0.566 | CCc1cc2ccc(CN3CCN(c4ccccc4Cl)CC3)cc2[nH]c1=O [Compound 18]
26 | 368 | 1.21 | CCc1cc2ccc(CN3CCN(c4ccc(C(F)(F)F)cn4)CC3)cc2[nH]c1=O [Compound 22]
27 | 188 | 14.3 | CCc1cc2ccc(CN3CCN(c4ncccn4)CC3)cc2[nH]c1=O [Compound 30]
28 | 398 | 1.14 | CCc1cc2ccc(CN3CCN(c4ccncc4)CC3)cc2[nH]c1=O [Compound 35]
29 | 222 | 2.55 | CCc1cc2ccc(CN3CCN(c4cnccn4)CC3)cc2[nH]c1=O [Compound 36]
30 | 649 | 25.6 | CCc1cc2ccc(CN3CCN(c4ccc(C)c(C)c4)CC3)cc2[nH]c1=O [Compound 40]
31 | 1720 | 2.58 | CCc1cc2ccc(CN3CCN(c4ccc(Cl)c(Cl)c4)CC3)cc2[nH]c1=O [Compound 43]
32 | 1710 | 16.3 | CCc1cc2ccc(CN3CCN(c4cccc(Cl)c4)CC3)cc2[nH]c1=O [Compound 45]
